# Experimental data published in ChEMBL document CHEMBL5321287, “Discovery, Synthesis, and Evaluation of Novel Dual Inhibitors of a Vascular Endothelial Growth Factor Receptor and Poly(ADP-Ribose) Polymerase for BRCA Wild-Type Breast Cancer Therapy” (J Med Chem, 2023).
# The source made the active and inactive calls. The rule behind the calls is not given here.
# Legend:
# [1] = molecular target: T1, Poly [ADP-ribose] polymerase 1 (Homo sapiens, UniProt P09874); assay: Inhibition of PARP1 (unknown origin)
# [2] = molecular target: Vascular endothelial growth factor receptor 2 (Homo sapiens, UniProt P35968); assay: Inhibition of VEGFR2 (unknown origin) by Z'-Lyte kinase assay
# MDA-MB-231 [3] = assay: Antiproliferative activity against human MDA-MB-231 cells assessed as cell growth inhibition
# MCF7 [4] = assay: Antiproliferative activity against human MCF7 cells assessed as cell growth inhibition
# MDA-MB-231 [5] = assay: cells; conditions: Homo sapiens
# HCC1937 [6] = assay: Antiproliferative activity against human HCC1937 cells assessed as cell growth inhibition
# [7] = molecular target: T1, Poly [ADP-ribose] polymerase 1; conditions: MDA-MB-231, dose 50.0 mg/kg, route po, time 14.0 day
# HCC1937 [8] = assay: cells; conditions: Homo sapiens
# HUVEC = assay: cells; conditions: Homo sapiens, 48 h
# MCF7 [9] = assay: cells; conditions: Homo sapiens
# MDA-MB-436 [10] = assay: Antiproliferative activity against human MDA-MB-436 cells assessed as cell growth inhibition
# MDA-MB-436 [11] = assay: cells; conditions: Homo sapiens
# Sequence of Vascular endothelial growth factor receptor 2 (P35968 whole entry): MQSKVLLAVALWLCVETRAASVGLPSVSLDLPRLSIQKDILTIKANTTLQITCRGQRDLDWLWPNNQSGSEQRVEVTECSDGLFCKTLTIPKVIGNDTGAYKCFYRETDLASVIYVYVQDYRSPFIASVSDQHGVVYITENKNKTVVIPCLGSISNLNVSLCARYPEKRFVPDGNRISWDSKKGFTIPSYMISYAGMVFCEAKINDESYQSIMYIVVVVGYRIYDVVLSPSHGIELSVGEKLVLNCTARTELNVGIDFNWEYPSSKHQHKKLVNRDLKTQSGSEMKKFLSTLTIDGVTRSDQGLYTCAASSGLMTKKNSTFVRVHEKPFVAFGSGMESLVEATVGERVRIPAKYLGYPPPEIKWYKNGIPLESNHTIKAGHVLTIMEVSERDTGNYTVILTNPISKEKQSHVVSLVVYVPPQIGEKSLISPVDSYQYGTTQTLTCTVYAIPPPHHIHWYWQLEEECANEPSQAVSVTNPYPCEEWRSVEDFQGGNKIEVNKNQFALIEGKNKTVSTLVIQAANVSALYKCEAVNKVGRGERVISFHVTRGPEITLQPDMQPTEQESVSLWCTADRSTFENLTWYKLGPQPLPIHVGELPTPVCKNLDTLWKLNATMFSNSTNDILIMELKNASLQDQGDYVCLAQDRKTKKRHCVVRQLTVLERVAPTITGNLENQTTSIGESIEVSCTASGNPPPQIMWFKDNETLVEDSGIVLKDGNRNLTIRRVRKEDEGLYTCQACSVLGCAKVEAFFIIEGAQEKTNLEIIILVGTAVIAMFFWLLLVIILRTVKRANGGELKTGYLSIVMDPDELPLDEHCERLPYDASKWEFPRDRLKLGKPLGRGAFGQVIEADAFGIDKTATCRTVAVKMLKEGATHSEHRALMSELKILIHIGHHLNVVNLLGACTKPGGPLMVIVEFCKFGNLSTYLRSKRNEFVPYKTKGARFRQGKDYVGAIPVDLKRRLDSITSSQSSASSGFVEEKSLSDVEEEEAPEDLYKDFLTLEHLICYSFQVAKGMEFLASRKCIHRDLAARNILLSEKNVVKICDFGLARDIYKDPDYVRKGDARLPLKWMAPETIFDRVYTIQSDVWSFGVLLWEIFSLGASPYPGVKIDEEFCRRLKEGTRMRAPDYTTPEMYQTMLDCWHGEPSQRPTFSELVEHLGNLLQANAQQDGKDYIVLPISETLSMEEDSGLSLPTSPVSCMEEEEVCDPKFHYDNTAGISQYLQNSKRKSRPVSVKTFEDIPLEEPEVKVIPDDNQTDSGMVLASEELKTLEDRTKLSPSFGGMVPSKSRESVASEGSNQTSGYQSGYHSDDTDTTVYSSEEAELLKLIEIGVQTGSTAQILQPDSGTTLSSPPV
# T1 sequence (P09874 whole entry): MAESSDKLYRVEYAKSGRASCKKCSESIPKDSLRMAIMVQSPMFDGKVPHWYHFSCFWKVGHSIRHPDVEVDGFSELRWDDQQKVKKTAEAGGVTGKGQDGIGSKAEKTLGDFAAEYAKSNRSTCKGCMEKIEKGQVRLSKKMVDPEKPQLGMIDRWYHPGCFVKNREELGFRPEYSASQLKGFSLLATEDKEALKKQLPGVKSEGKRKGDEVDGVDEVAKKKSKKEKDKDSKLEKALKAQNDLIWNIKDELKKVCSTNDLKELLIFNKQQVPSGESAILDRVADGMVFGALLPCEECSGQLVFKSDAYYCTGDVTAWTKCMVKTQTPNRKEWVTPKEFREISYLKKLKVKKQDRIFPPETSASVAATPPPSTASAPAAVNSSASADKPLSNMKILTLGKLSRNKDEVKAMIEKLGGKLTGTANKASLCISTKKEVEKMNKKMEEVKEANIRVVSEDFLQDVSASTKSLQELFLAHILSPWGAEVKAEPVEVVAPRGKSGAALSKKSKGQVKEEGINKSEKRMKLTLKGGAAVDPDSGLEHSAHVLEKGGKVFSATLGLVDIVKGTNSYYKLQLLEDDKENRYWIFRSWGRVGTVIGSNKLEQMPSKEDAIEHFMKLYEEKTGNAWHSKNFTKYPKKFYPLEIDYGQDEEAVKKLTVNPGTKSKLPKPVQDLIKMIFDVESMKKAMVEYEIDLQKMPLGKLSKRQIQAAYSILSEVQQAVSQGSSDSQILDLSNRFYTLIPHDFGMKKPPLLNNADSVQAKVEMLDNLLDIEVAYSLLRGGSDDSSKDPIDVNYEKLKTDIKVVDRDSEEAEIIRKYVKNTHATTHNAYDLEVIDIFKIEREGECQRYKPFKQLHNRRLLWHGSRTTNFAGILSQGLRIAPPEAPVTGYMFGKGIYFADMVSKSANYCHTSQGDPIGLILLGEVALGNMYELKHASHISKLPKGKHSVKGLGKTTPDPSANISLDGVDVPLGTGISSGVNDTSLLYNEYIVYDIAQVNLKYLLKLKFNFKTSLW
Compound,IC50 [1],IC50 [2],IC50 (MDA-MB-231 [3]),IC50 (MCF7 [4]),other results
Cc1c2ccc(N(C)c3ccnc(Nc4ccc(-c5nc6cc(F)c(F)cc6[nH]5)c(C(F)(F)F)c4)n3)cc2nn1C,0.673 µM,,,,
Cc1c2ccc(N(C)c3ccnc(Nc4ccc(-c5nc6c(C(N)=O)cccc6[nH]5)c(Cl)c4)n3)cc2nn1C,0.142 µM,,,,
Cc1cnc(Nc2ccc(-c3nc4c(C(N)=O)cccc4[nH]3)cc2)nc1N(C)c1ccc2c(C)n(C)nc2c1,,> 10 µM,,,
Cc1c2ccc(N(C)c3ccnc(Nc4ccc(C(=O)Nc5nc6c(C(N)=O)cccc6[nH]5)c(C(F)(F)F)c4)n3)cc2nn1C,0.345 µM,,,,
Cc1c2ccc(N(C)c3ccnc(Nc4ccc(-c5nc6c(C(N)=O)cccc6[nH]5)cc4)n3)cc2nn1C,0.0957 µM,,,,
CN(c1ccnc(Nc2ccc(-c3nc4c(C(N)=O)cccc4[nH]3)cc2)n1)c1cc(C(C)(C)C)n(C)n1,,> 10 µM,,,
Cc1ccc(Nc2nccc(N(C)c3ccc4c(C)n(C)nc4c3)n2)cc1-c1nc2cc(F)c(F)cc2[nH]1,0.682 µM,,,,
Cc1cc(N(C)c2ccc3c(C)n(C)nc3c2)nc(Nc2ccc(-c3nc4c(C(N)=O)cccc4[nH]3)cc2)n1,0.0852 µM,> 10 µM,> 10 µM,> 10 µM,
Cc1c2ccc(N(C)c3ccnc(Nc4ccc(-c5ccc(-c6nc7c(C(N)=O)cccc7[nH]6)cc5)cc4)n3)cc2nn1C,0.469 µM,0.308 µM,> 10 µM,> 10 µM,
COc1ccc(-c2nc3c(C(N)=O)cccc3[nH]2)cc1Nc1nccc(N(C)c2ccc3c(C)n(C)nc3c2)n1,0.0394 µM,0.266 µM,> 10 µM,> 10 µM,
Cc1c2ccc(N(C)c3ccnc(Nc4ccc(-c5nc6ccccc6[nH]5)c(Cl)c4)n3)cc2nn1C,> 10 µM,0.188 µM,> 10 µM,> 10 µM,
CN1CCN(C2CCN(c3ccnc(Nc4ccc(-c5nc6c(C(N)=O)cccc6[nH]5)cc4)n3)CC2)CC1,,> 10 µM,,,
O=C(c1cc(Cc2n[nH]c(=O)c3ccccc23)ccc1F)N1CCN(C(=O)C2CC2)CC1 [OLAPARIB],,,> 10 µM,> 10 µM,IC50 (MDA-MB-231 [5]): > 10 µM; IC50 (HCC1937 [6]): 6.51 µM; inhibition [7]: Active; IC50 (HCC1937 [8]): > 10 µM; IC50 (HUVEC): 4.6 µM; IC50 (MCF7 [9]): > 10 µM; IC50 (MDA-MB-436 [10]): 9 µM; IC50 (MDA-MB-436 [11]): > 10 µM
Cc1c2ccc(N(C)c3ccnc(Nc4ccc(-c5nc6c(C(N)=O)cccc6[nH]5)cc4F)n3)cc2nn1C,0.118 µM,0.254 µM,9.34 µM,> 10 µM,
CN(c1ccc(N2CCOCC2)c(F)c1)c1ccnc(Nc2ccc(C(=O)Nc3nc4ccccc4[nH]3)cc2)n1,> 10 µM,0.728 µM,> 10 µM,> 10 µM,
Cc1c2ccc(N(C)c3ccnc(Nc4cccc(-c5nc6cc(F)c(F)cc6[nH]5)c4)n3)cc2nn1C,0.647 µM,0.19 µM,2.3 µM,7.2 µM,
Cc1c2ccc(N(C)c3ccnc(Nc4ccc(C(=O)Nc5nc6c(C(N)=O)cccc6[nH]5)cc4)n3)cc2nn1C,,0.26 µM,,,
COc1ccc(-c2nc3cc(F)c(F)cc3[nH]2)cc1Nc1nccc(N(C)c2ccc3c(C)n(C)nc3c2)n1,,0.2 µM,,,
CN(c1ccc(Cl)cc1)c1ccnc(Nc2ccc(C(=O)Nc3nc4c(C(N)=O)cccc4[nH]3)cc2)n1,0.137 µM,,,,
Cc1ccc(Nc2nccc(N(C)c3ccc4c(C)n(C)nc4c3)n2)cc1-c1nc2ccccc2[nH]1,,0.171 µM,,,
CC(C)c1ccc(N(C)c2ccnc(Nc3ccc(-c4nc5cc(F)c(F)cc5[nH]4)cc3)n2)cc1,,0.501 µM,,,
NC(=O)c1cccc2[nH]c(-c3ccc(Nc4nccc(N5CCN(C(=O)c6ccccc6)CC5)n4)cc3)nc12,0.128 µM,> 10 µM,> 10 µM,> 10 µM,

Compound,IC50 [1],IC50 [2],IC50 (MDA-MB-231 [3]),IC50 (MCF7 [4]),other results
Cc1c2ccc(N(C)c3ccnc(Nc4ccc(-c5nc6c(C(N)=O)cccc6[nH]5)c(C(F)(F)F)c4)n3)cc2nn1C,0.164 µM,0.267 µM,,> 10 µM,
Cc1cc(Nc2nccc(N(C)c3ccc4c(C)n(C)nc4c3)n2)cnc1-c1nc2c(C(N)=O)cccc2[nH]1,0.15 µM,0.235 µM,8.91 µM,> 10 µM,
CN(c1ccc(Cl)cc1)c1ccnc(Nc2ccc(-c3nc4cc(F)c(F)cc4[nH]3)cc2)n1,0.661 µM,0.427 µM,> 10 µM,> 10 µM,
CN(c1ccc2ncccc2c1)c1ccnc(Nc2ccc(-c3nc4c(C(N)=O)cccc4[nH]3)cc2)n1,,0.659 µM,,,
COc1cc(Nc2nccc(N(C)c3ccc4c(C)n(C)nc4c3)n2)ccc1-c1nc2c(C(N)=O)cccc2[nH]1,,0.169 µM,,,
Cc1c2ccc(N(C)c3ccnc(Nc4cc(F)c(-c5nc6c(C(N)=O)cccc6[nH]5)c(F)c4)n3)cc2nn1C,0.342 µM,,,,
CN(c1ccc(N2CCOCC2)cc1)c1ccnc(Nc2ccc(-c3nc4c(C(N)=O)cccc4[nH]3)cc2)n1,0.087 µM,> 10 µM,9.72 µM,8.93 µM,
CS(=O)(=O)N1CCN(c2ccnc(Nc3ccc(-c4nc5c(C(N)=O)cccc5[nH]4)cc3)n2)CC1,,> 10 µM,,,
Cc1c2ccc(N(C)c3ccnc(Nc4ccc(-c5nc6ccccc6[nH]5)c(C(F)(F)F)c4)n3)cc2nn1C,> 10 µM,0.213 µM,> 10 µM,> 10 µM,
COc1cc(N(C)c2ccc3c(C)n(C)nc3c2)nc(Nc2ccc(-c3nc4c(C(N)=O)cccc4[nH]3)cc2)n1,0.0796 µM,> 10 µM,> 10 µM,> 10 µM,
NC(=O)c1cccc2[nH]c(-c3ccc(Nc4nccc(N5CCN(c6ccc(C(F)(F)F)cn6)CC5)n4)cc3)nc12,0.0982 µM,,,,
Cc1c2ccc(N(C)c3nc(Nc4ccc(-c5nc6c(C(N)=O)cccc6[nH]5)cc4)nc4ccsc34)cc2nn1C,,> 10 µM,,,
Cc1c2ccc(N(C)c3ccnc(Nc4ccc(C(=O)Nc5nc6c(C(N)=O)cccc6[nH]5)c(Cl)c4)n3)cc2nn1C,0.166 µM,,,,
Cc1c2ccc(N(C)c3ccnc(Nc4cccc(-c5nc6c(C(N)=O)cccc6[nH]5)c4)n3)cc2nn1C,0.0827 µM,,,,
CN(c1ccc(F)cc1)c1ccnc(Nc2ccc(-c3nc4c(C(N)=O)cccc4[nH]3)cc2)n1,0.13 µM,,,,
NC(=O)c1cccc2[nH]c(NC(=O)c3ccc(Nc4nccc(N5CCN(C(=O)c6ccccc6)CC5)n4)cc3)nc12,0.194 µM,,,,
CC(C)c1ccc(N(C)c2ccnc(Nc3ccc(-c4nc5c(C(N)=O)cccc5[nH]4)cc3)n2)cc1,0.0897 µM,,,,
COc1cc(Nc2nccc(N(C)c3ccc4c(C)n(C)nc4c3)n2)ccc1-c1nc2cc(F)c(F)cc2[nH]1,,0.165 µM,,,
CN(c1ccc(S(C)(=O)=O)cc1)c1ccnc(Nc2ccc(-c3nc4c(C(N)=O)cccc4[nH]3)cc2)n1,,> 10 µM,,,
Cc1c2ccc(N(C)c3ccnc(Nc4ccc(-c5nc6cc(F)c(F)cc6[nH]5)c(Cl)c4)n3)cc2nn1C,0.759 µM,,,,
Cc1c2ccc(N(C)c3cc(C(F)(F)F)nc(Nc4ccc(C(=O)Nc5nc6c(C(N)=O)cccc6[nH]5)cc4)n3)cc2nn1C,,> 10 µM,,,
